Consider three compounds from patent publication US20170035847A1, “COMPOSITIONS AND METHODS FOR TREATING INFLAMMATION-ASSOCIATED DISORDERS OF THE GASTROINTESTINAL TRACT” (TherapyX, Inc., priority 2015, published 2017).

One data set is described as follows: in vivo. The note with it: rat, iv. The procedure:
In addition to the studies discussed above a bioavailability and pharmacokinetic study of TGFβ and ATRA was conducted following a single oral administration of PIN®-encapsulated TGFβ and ATRA in male rats, when compared to intravenous administration.

For data set [1], the system named is DSS-induced colitis in C57Black6 mice. The data set is described as follows: Dextran sodium sulphate-induced colitis. In kind it is in vivo, mouse. The text has this: Animals: Mice 6-8-weeks old (C57Black6 mice [males: n=6; females: n=6; 12 per group]) were purchased from Harlan Nossan, San Pietro al Natisone, Udine, Italy, and housed in a vivarium under pathogen-free conditions at the Department of Biomedical Sciences in the School of Medicine at the University of Catania [Catania, Italy]. The mice were kept under standard laboratory conditions with free access to food and water. They were allowed to adapt for 1 week before starting the study. The care and use of laboratory animals was in accordance with a University of Catania IACUC-approved animal use protocol.
Colitis was induced with 3% dextran sodium sulphate [50 kDa; Sigma-Aldrich] in drinking water for 4 days. The first treatment was given 24 h before induction of colitis [Day −1] and continued every other day for 6 days.
Disease score, SAA levels and histological analysis were performed as above.
To more broadly test the ability of oral TGFβ/ATRA-loaded microspheres to ameliorate IBD, a second model, the DSS-induced colitis model, was employed. Acute colitis was induced in C57Black6 mice [equal numbers of males and females, […]] with 3% DSS[50 kDa] in drinking water for 4 days. […] Mice were monitored daily for overall disease score and weight loss. At the end of 7 days, animals were sacrificed, sera taken and colons harvested, weighed, and measured on Day 7 [24 h after final treatment]. […] SAA levels, colon weight-to-length ratios, and histology scores determined. […] Mice were sacrificed 7 days after first treatment and levels of SAA determined [FIG. 10C]. […] The colons of sacrificed mice were also analyzed for colon weight-to-length ratio [FIG. 10D]. […] Next, ascending, transverse, and descending colon from naïve C57Black6 [no disease], untreated, TGFβ/ATRA-treated, and control [fed blank particles] mice were fixed in 10% formalin, embedded in paraffin, sectioned [5 μm] and stained with H & E. Five randomly-selected sections from each mouse were scored [Table 2] for disease severity. […]

As usually defined, the AUC is the area under the concentration-time curve, a measure of exposure. High values mean high exposure, low ones low exposure. What is called half-life is the time needed for the level to fall by half in the phase considered. A high value points to slow decline. Take `CC1=C(/C=C/C(C)=C/C=C/C(C)=C/C(=O)O)C(C)(C)CCC1` [ATRA, all-trans retinoic acid]: in the data set “in vivo” (male, 1.6 mg/kg), the AUC was found to be 3500 ng·h/mL and the half-life was determined as 34 min.
With `O=C(O)c1cc(/N=N/c2ccc(S(=O)(=O)Nc3ccccn3)cc2)ccc1O` [sulphasalazine], in data set [1] (Day 7, TGFβ/ATRA 10 and 20 μg, sulphasalazine 50 mg/kg daily), the “SAA levels, difference to no treatment” value is on record as “significant”. Also, the colon weight-to-length ratio in data set [1] (Day 7, control groups almost 40 mg/cm, p<0.01) stood at 35 mg/cm. Further, the weight loss result in data set [1] (TGFβ/ATRA 10 and 20 μg every other day, sulphasalazine 50 mg/kg daily oral for 7 days) is “neither sulphasalazine nor TGFβ/ATRA treatment was able to reduce weight loss”.
In the case of “TGFβ: soluble unencapsulated protein, transforming growth factor β; human recombinant TGFβ (Peprotech)”, in “in vivo” (0.04 mg/kg), the “Area under the curve [AUC]” value is 10 ng·h/mL and the t1/2 is listed as 5 min.
